Source: patent US12441703B2, “Carboxamides as modulators of sodium channels” (VERTEX PHARMACEUTICALS INCORPORATED, priority 2019, dated 2025)

Molecular target: human NaV 1.8 (Homo sapiens, UniProt Q9Y5Y9)
Test: E-VIPR assay for detecting and measuring NaV inhibition properties
Format: cell-based
Conditions: E-VIPR assay conducted in the presence of human serum; HEK cells expressing truncated human NaV 1.8
Method in brief: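 HEK cells with truncated human NaV1.8 plus KIR2.1 BacMam, hexyl dye loaded 20 min, compound 30 min at room temperature, 11-point 3-fold series […], 0.625% DMSO, with or without human serum. E-VIPR biphasic stimulation at 10 Hz for 10 s; membrane-potential response read as normalized coumarin/oxonol ratio.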

Chain of human NaV 1.8 (Q9Y5Y9 whole entry, looked up): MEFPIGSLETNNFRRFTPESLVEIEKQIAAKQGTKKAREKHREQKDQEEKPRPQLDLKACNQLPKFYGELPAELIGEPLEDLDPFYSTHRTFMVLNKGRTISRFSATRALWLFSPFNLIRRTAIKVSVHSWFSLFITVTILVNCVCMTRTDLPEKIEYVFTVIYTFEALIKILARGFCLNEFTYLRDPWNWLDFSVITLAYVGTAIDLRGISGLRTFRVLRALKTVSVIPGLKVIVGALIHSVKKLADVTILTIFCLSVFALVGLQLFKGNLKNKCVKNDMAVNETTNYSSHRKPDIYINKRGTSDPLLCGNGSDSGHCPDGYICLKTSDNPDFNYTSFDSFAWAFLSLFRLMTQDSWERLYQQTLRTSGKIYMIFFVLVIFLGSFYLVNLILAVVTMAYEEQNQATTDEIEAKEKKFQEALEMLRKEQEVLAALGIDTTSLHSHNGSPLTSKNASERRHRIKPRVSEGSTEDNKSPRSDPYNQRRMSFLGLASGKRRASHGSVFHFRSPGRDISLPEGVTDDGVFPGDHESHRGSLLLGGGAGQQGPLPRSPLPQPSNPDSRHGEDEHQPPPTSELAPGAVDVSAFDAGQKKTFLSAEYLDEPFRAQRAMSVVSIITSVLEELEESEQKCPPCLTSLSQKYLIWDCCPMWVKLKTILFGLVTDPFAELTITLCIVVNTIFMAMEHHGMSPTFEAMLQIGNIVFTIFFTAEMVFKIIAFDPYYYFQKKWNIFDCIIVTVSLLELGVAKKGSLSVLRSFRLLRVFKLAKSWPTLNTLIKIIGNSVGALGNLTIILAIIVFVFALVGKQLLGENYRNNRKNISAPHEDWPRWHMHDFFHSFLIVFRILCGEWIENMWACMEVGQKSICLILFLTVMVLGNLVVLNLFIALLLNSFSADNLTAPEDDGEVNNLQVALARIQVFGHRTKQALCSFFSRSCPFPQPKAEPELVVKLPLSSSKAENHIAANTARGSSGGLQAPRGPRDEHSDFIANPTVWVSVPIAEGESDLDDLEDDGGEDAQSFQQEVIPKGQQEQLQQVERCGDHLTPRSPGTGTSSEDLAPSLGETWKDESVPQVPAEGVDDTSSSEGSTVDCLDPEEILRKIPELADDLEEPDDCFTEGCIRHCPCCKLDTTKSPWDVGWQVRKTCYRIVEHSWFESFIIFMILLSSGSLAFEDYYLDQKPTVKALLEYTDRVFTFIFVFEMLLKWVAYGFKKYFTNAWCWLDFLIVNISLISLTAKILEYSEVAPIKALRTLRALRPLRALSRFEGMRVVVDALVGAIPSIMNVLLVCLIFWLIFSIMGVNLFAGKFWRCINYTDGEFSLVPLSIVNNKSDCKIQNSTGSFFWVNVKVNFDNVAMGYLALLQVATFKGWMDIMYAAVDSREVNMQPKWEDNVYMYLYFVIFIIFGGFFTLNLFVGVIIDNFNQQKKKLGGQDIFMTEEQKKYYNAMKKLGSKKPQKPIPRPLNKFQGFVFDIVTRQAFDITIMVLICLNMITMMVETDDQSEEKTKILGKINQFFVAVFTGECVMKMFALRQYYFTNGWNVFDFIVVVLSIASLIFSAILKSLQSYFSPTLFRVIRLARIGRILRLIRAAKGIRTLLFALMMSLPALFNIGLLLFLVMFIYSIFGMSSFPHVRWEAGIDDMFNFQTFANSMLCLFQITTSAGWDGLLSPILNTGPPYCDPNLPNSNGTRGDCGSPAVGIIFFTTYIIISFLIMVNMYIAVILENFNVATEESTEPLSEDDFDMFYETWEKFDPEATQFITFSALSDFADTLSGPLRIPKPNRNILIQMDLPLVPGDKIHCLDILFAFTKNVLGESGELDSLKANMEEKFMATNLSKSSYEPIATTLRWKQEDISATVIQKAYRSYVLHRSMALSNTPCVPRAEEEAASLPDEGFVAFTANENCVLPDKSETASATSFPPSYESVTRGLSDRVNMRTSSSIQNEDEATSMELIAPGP

In the case of COc1cc(OC(F)(F)F)ccc1Oc1ccc(-c2ccccc2)c(F)c1C(=O)Nc1ccnc(C(N)=O)c1 [Compound 177, 4-[[2-fluoro-6-[2-methoxy-4-(trifluoromethoxy)phenoxy]-3-phenyl-benzoyl]amino]pyridine-2-carboxamide], the IC50 is reported as 20 nM.

Same assay, conditions: E-VIPR assay conducted in the presence of human serum; HEK cells expressing truncated human NaV 1.8; read-out: IC50

First: [2H]C([2H])([2H])Oc1cc(OC(F)(F)F)ccc1Oc1cc(C(F)(F)F)cnc1C(=O)Nc1ccc(C(N)=O)nc1 [Compound 174, N-(6-carbamoyl-3-pyridyl)-3-[2-(trideuteriomethoxy)-4-(trifluoromethoxy)phenoxy]-5-(trifluoromethyl)pyridine-2-carboxamide]
Second: COc1cc(OC(F)(F)F)ccc1Oc1cc(C(F)(F)F)cc(C)c1C(=O)Nc1ccc(C(N)=O)nc1 [Compound 187, 5-[[2-[2-methoxy-4-(trifluoromethoxy)phenoxy]-6-methyl-4-(trifluoromethyl)benzoyl]amino]pyridine-2-carboxamide]
The IC50 of the first is higher: > 3000 nM for the first, 490 nM for the second.

Compared with NC(=O)c1ccc(NC(=O)c2c(Oc3ccc(F)cc3Cl)ccc(C(F)(F)F)c2F)cn1 [Compound 176, 5-[[6-(2-chloro-4-fluoro-phenoxy)-2-fluoro-3-(trifluoromethyl)benzoyl]amino]pyridine-2-carboxamide], Cc1c(C(F)(F)F)ccc(Oc2ccc(F)cc2Cl)c1C(=O)Nc1ccc(C(N)=O)nc1 [Compound 190, 5-[[6-(2-chloro-4-fluoro-phenoxy)-2-methyl-3-(trifluoromethyl)benzoyl]amino]pyridine-2-carboxamide] is 3.1-fold higher in IC50: 490 nM for the first, 1500 nM for the second. The first is the more potent here.

CCc1cc(C(F)(F)F)cc(Oc2ccc(OC(F)(F)F)cc2OC)c1C(=O)Nc1ccnc(C(N)=O)c1 [Compound 178, 4-[[2-ethyl-6-[2-methoxy-4-(trifluoromethoxy)phenoxy]-4-(trifluoromethyl)benzoyl]amino]pyridine-2-carboxamide] and COc1cc(OC(F)(F)F)ccc1Oc1cc(C(F)(F)F)cc(C)c1C(=O)Nc1ccnc(C(N)=O)c1 [Compound 188, 4-[[2-[2-methoxy-4-(trifluoromethoxy)phenoxy]-6-methyl-4-(trifluoromethyl)benzoyl]amino]pyridine-2-carboxamide] are within 1.5-fold of each other in IC50: 27 nM for the first, 24 nM for the second.

Going from COc1c(Oc2ccc(C(F)(F)F)c(C)c2C(=O)Nc2ccc(C(N)=O)nc2)ccc(F)c1F [Compound 179, 5-[[6-(3,4-difluoro-2-methoxy-phenoxy)-2-methyl-3-(trifluoromethyl)benzoyl]amino]pyridine-2-carboxamide] to Cc1c(Oc2ccc(C(F)(F)F)c(F)c2C(=O)Nc2ccc(C(N)=O)nc2)ccc(F)c1F [Compound 207, 5-[[6-(3,4-difluoro-2-methyl-phenoxy)-2-fluoro-3-(trifluoromethyl)benzoyl]amino]pyridine-2-carboxamide], the IC50 falls from 2000 nM to 370 nM (5.4-fold). The second is the more potent here.

Going from COc1c(Oc2ccc(C(F)(F)F)c(C)c2C(=O)Nc2cc(C(N)=O)ncc2C)ccc(F)c1F [Compound 180, 4-[[6-(3,4-difluoro-2-methoxy-phenoxy)-2-methyl-3-(trifluoromethyl)benzoyl]amino]-5-methyl-pyridine-2-carboxamide] to COc1c(Oc2ccc(C(F)(F)F)c(Cl)c2C(=O)Nc2ccnc(C(N)=O)c2)ccc(F)c1F [Compound 193], the IC50 falls from 510 nM to 6 nM (85-fold).

Compared with COc1cc(OC(F)(F)F)ccc1Oc1ccc(C2CC2)c(C)c1C(=O)Nc1ccnc(C(N)=O)c1 [Compound 181, 4-[[3-cyclopropyl-6-[2-methoxy-4-(trifluoromethoxy)phenoxy]-2-methyl-benzoyl]amino]pyridine-2-carboxamide], Cc1c(C2CC2)ccc(Oc2ccc(OC(F)(F)F)cc2Cl)c1C(=O)Nc1ccnc(C(N)=O)c1 [Compound 199, 4-[[6-[2-chloro-4-(trifluoromethoxy)phenoxy]-3-cyclopropyl-2-methyl-benzoyl]amino]pyridine-2-carboxamide] is 1.8-fold higher in IC50: 12 nM for the first, 21 nM for the second.

First: COc1cc(OC(F)(F)F)ccc1Oc1ccc(C2CC2)c(C)c1C(=O)Nc1ccc(C(N)=O)nc1 [Compound 182]
Second: COc1c(Oc2ccc(C3CC3)c(C)c2C(=O)Nc2ccc(C(N)=O)nc2)ccc(OC(F)(F)F)c1F [Compound 197, 5-[[3-cyclopropyl-6-[3-fluoro-2-methoxy-4-(trifluoromethoxy)phenoxy]-2-methyl-benzoyl]amino]pyridine-2-carboxamide]
The IC50 of the first is 2.4-fold higher: 290 nM for the first, 120 nM for the second. The second is the more potent here.

First: CCc1c(C(F)(F)F)ccc(Oc2ccc(OC(F)(F)F)cc2OC)c1C(=O)Nc1ccnc(C(N)=O)c1 [Compound 183, 4-[[2-ethyl-6-[2-methoxy-4-(trifluoromethoxy)phenoxy]-3-(trifluoromethyl)benzoyl]amino]pyridine-2-carboxamide]
Second: COc1cc(OC(F)(F)F)ccc1Oc1ccc(C(F)(F)F)c(Cl)c1C(=O)Nc1ccnc(C(N)=O)c1 [Compound 191, 4-[[2-chloro-6-[2-methoxy-4-(trifluoromethoxy)phenoxy]-3-(trifluoromethyl)benzoyl]amino]pyridine-2-carboxamide]
The IC50 of the first is 7-fold higher: 14 nM for the first, 2 nM for the second.

Compared with CCc1c(C(F)(F)F)ccc(Oc2ccc(OC(F)(F)F)cc2OC)c1C(=O)Nc1ccc(C(N)=O)nc1 [Compound 184], COc1cc(OC(F)(F)F)ccc1Oc1ccc(C(F)(F)F)c(Br)c1C(=O)Nc1ccnc(C(N)=O)c1 [Compound 194, 4-[[2-bromo-6-[2-methoxy-4-(trifluoromethoxy)phenoxy]-3-(trifluoromethyl)benzoyl]amino]pyridine-2-carboxamide] is 70-fold lower in IC50: 140 nM for the first, 2 nM for the second. The second is the more potent here.

First: COc1cc(OC(F)(F)F)ccc1Oc1ccc(CC(C)C)c(C)c1C(=O)Nc1ccnc(C(N)=O)c1 [Compound 185, 4-[[3-isobutyl-6-[2-methoxy-4-(trifluoromethoxy)phenoxy]-2-methyl-benzoyl]amino]pyridine-2-carboxamide]
Second: COc1cc(OC(F)(F)F)ccc1Oc1ccc(OC2CC(F)(F)C2)c(C)c1C(=O)Nc1ccnc(C(N)=O)c1 [Compound 204, 4-[[3-(3,3-Difluorocyclobutoxy)-6-[2-Methoxy-4-(Trifluoromethoxy)Phenoxy]-2-Methyl-Benzoyl]Amino]Pyridine-2-Carboxamide]
The IC50 of the first is 15-fold lower: 11 nM for the first, 170 nM for the second. The first is the more potent here.

Compared with COc1cc(OC(F)(F)F)ccc1Oc1cc(C(F)(F)F)cc(C)c1C(=O)Nc1cc(C(N)=O)ncc1C [Compound 186, 4-[[2-[2-methoxy-4-(trifluoromethoxy)phenoxy]-6-methyl-4-(trifluoromethyl)benzoyl]amino]-5-methyl-pyridine-2-carboxamide], COc1cc(OC(F)(F)F)ccc1Oc1ccc(C2CC2)c(C)c1C(=O)Nc1cc(C(N)=O)ncc1C [Compound 198, 4-[[3-cyclopropyl-6-[2-methoxy-4-(trifluoromethoxy)phenoxy]-2-methyl-benzoyl]amino]-5-methyl-pyridine-2-carboxamide] is 7.3-fold lower in IC50: 110 nM for the first, 15 nM for the second. The second is the more potent here.

First: COc1c(Oc2cc(C(F)(F)F)cc(C)c2C(=O)Nc2ccnc(C(N)=O)c2)ccc(F)c1F [Compound 189, 4-[[2-(3,4-difluoro-2-methoxy-phenoxy)-6-methyl-4-(trifluoromethyl)benzoyl]amino]pyridine-2-carboxamide]
Second: COc1cc(OC(F)(F)F)ccc1Oc1cc(C(F)F)cc(C)c1C(=O)Nc1ccnc(C(N)=O)c1 [Compound 200, 4-[[4-(difluoromethyl)-2-[2-methoxy-4-(trifluoromethoxy)phenoxy]-6-methyl-benzoyl]amino]pyridine-2-carboxamide]
The IC50 of the first is 2-fold higher: 170 nM for the first, 85 nM for the second.

NC(=O)c1cc(NC(=O)c2c(Oc3ccc(OC(F)(F)F)cc3Cl)ccc(C(F)(F)F)c2Cl)ccn1 [Compound 192] and COc1c(Oc2ccc(C(F)(F)F)c(Br)c2C(=O)Nc2ccnc(C(N)=O)c2)ccc(OC(F)(F)F)c1F [Compound 195] are within 1.5-fold of each other in IC50: 4 nM for the first, 5 nM for the second.

COc1c(Oc2ccc(C3CC3)c(C)c2C(=O)Nc2ccnc(C(N)=O)c2)ccc(OC(F)(F)F)c1F [Compound 196, 4-[[3-cyclopropyl-6-[3-fluoro-2-methoxy-4-(trifluoromethoxy)phenoxy]-2-methyl-benzoyl]amino]pyridine-2-carboxamide] and COc1c(Oc2ccc(C(F)(F)F)c(F)c2C(=O)Nc2ccc(C(N)=O)nc2)ccc(OC(F)(F)F)c1F [Compound 209, 5-[[2-fluoro-6-[3-fluoro-2-methoxy-4-(trifluoromethoxy)phenoxy]-3-(trifluoromethyl)benzoyl]amino]pyridine-2-carboxamide] are within 1.5-fold of each other in IC50: 9 nM for the first, 8 nM for the second.

Compared with COc1cc(OC(F)(F)F)ccc1Oc1cc(C2CC2)c(C2CC2)nc1C(=O)Nc1ccnc(C(N)=O)c1 [Compound 201, N-(2-carbamoyl-4-pyridyl)-5,6-dicyclopropyl-3-[2-methoxy-4-(trifluoromethoxy)phenoxy]pyridine-2-carboxamide], COc1cc(OC(F)(F)F)ccc1Oc1cc(C2CC2)c(C2CC2)nc1C(=O)Nc1ccc(C(N)=O)nc1 [Compound 205, N-(6-carbamoyl-3-pyridyl)-5,6-dicyclopropyl-3-[2-methoxy-4-(trifluoromethoxy)phenoxy]pyridine-2-carboxamide] is 2.1-fold higher in IC50: 530 nM for the first, 1100 nM for the second.

First: COc1cc(OC(F)(F)F)ccc1Oc1cc2c(c(C)c1C(=O)Nc1ccnc(C(N)=O)c1)OC(F)(F)O2 [Compound 202, 4-[[2,2-difluoro-6-[2-methoxy-4-(trifluoromethoxy)phenoxy]-4-methyl-1,3-benzodioxole-5-carbonyl]amino]pyridine-2-carboxamide]
Second: COc1cc(OC(F)(F)F)ccc1Oc1cc2c(c(C)c1C(=O)Nc1ccc(C(N)=O)nc1)OC(F)(F)O2 [Compound 203]
The IC50 of the first is 23-fold lower: 6 nM for the first, 140 nM for the second.

Going from NC(=O)c1ccc(NC(=O)c2c(Oc3ccc(OC(F)(F)F)cc3C3CC3)ccc(C(F)(F)F)c2F)cn1 [Compound 206, 5-[[6-[2-cyclopropyl-4-(trifluoromethoxy)phenoxy]-2-fluoro-3-(trifluoromethyl)benzoyl]amino]pyridine-2-carboxamide] to Cc1cc(Cl)cc(C)c1Oc1ccc(C(F)(F)F)c(F)c1C(=O)Nc1ccc(C(N)=O)nc1 [Compound 208, 5-[[6-(4-chloro-2,6-dimethyl-phenoxy)-2-fluoro-3-(trifluoromethyl)benzoyl]amino]pyridine-2-carboxamide], the IC50 rises from 360 nM to > 3000 nM. The first is the more potent here.
